Measured values as given in PMC9516243, “Design of stapled peptide-based PROTACs for MDM2/MDMX atypical degradation and tumor suppression” (Theranostics, 2022).
Where “and” joins values, the source holds several entries; their conditions need not be identical. Equal values may be shown once. Read-outs that look alike come from different tables or passages of the source. Positions of bridges follow the written chain, without caps; N, C: chain ends. Non-standard residues stand in square brackets, D forms with d. Residues, ends and D or L forms follow the SMILES beside them. Hyp = O=C(O)[C@@H]1C[C@@H](O)CN1; R8 = C=CCCCCCC[C@@](C)(N)C(=O)O; hLeu = CC(C)CC[C@H](N)C(=O)O; S5 = C=CCCC[C@](C)(N)C(=O)O; PEG3 = NCCOCCOCCOCCC(=O)O; PEG2 = NCCOCCOCCC(=O)O; AEA = NCCOCC(=O)O

Experiments:
circular dichroism = conditions: phosphate buffer (PB); pH 7.2; 20 °C; 10-50 uM
HCT116 p53^+/+ cells = test: Cell viability assay (CCK-8); assay type: cell-based, human
Experimental: (§1) The human colon carcinoma cell line HCT116 p53^+/+ was obtained from the Cell Bank of the Chinese Academy of Sciences (Shanghai, China). HCT116 p53^-/- cells were generously provided by Prof. Vogelstein of Johns Hopkins University. Both cell lines were cultured in McCoy's 5A medium (Gibco, USA) containing 10% FBS, 100 units/ml penicillin, and 100 μg/ml streptomycin at 37 °C in a humidified incubator containing 5% CO2. Cell viability was measured using a Cell Counting Kit-8 (CCK-8) (Dojindo, Kumamoto, Japan) according to the manufacturer's instructions. In brief, the cells (5 × 10^3 cells/well in […] medium) were cultured for 24 h in 96-well microplates in a humidified 5% CO2 incubator at 37 °C and then treated with varying concentrations of compounds or 0.1% DMSO vehicle control.

HCT116 p53^-/- cells = test: Cell viability assay (CCK-8); assay type: cell-based, human
Experimental: as §1

[1] = α-Helicity by CD spectroscopy; assay type: physicochemical; conditions: PB pH 7.2, 10-50 µM peptide, 20°C, calculated from [θ]222
Experimental: Peptides were dissolved in PB (pH = 7.2) to concentrations ranging from 10 to 50 µM. CD spectra were obtained on a Jasco J-715 spectropolarimeter at 20°C. The spectra were collected using a 0.1 cm path length quartz cuvette with the following measurement parameters: wavelength, 185-255 nm; step resolution, 0.1 nm; speed, 20 nm/min; accumulations, 6; bandwidth, 1 nm. The helical content of each peptide was calculated as reported previously.

^24-108MDMX = biological target: T1, ^24-108MDMX (Homo sapiens, UniProt O15151); test: FP-based competitive binding assay; conditions: MDMX 40 nM, fluorescently tagged p53 peptide 20 nM, PBS pH 7.4, 30 min room temperature; mean of three independent measurements
T1 construct: ^24-108MDMX, and a fluorescently tagged p53-derived peptide
T1 sequence (O15151 24-108): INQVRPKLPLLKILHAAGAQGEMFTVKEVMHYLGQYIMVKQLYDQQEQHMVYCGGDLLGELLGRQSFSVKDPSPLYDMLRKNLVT
Experimental: An FP-based competitive or binding assay was established using ^25-109MDM2, ^24-108MDMX, and a fluorescently tagged p53-derived peptide as previously described. [34]-[36] For dose-dependent competitive binding experiments, MDM2 or MDMX protein (40 nM) was first incubated with TAMRA-p53 peptide (20 nM) in PBS (pH 7.4) on a Costar 96-well plate, to which a serially diluted solution of test peptide was added to a final volume of 125 μL. After 30 min of incubation at room temperature, the FP values were measured at λex = 530 nm and λem = 580 nm on a Tecan Infinite M1000 plate reader. For binding experiments, FITC-labeled SPMI-HIF2-1 (20 nM) was incubated with different concentrations of MDM2, MDMX, and VHL proteins. Curve fitting was performed using GraphPad Prism software, and Ki values were calculated as described previously. Three replicates and three independent experiments were performed.

Pharmacokinetic study = assay type: in vivo; conditions: mouse, iv, male ICR mice, 1.8 mg/kg single i.v. tail vein, plasma, UPLC-ESI-QqQ-MS, n = 5
Experimental: The peptides (1.8 mg/kg) were individually dosed in mice intravenously via tail vein injection and the blood samples were collected from the orbital venous plexus at 0, 0.5, 1, 2, 4, 6, 10, 24, and 48 h. All blood samples were centrifuged at 3000 rpm for 10 min, and the obtained plasma samples were immediately frozen at -80 °C until use. The standard curve was established as follows: Stock solutions of PMI-HIF1-1 and SPMI-HIF2-1 dissolved in acetonitrile were spiked into control plasma at final concentrations of 4000, 2000, 1000, 500, 250, 125, 62.5, 31.25, 15.625, 7.8125, 3.90625, 1.953125, and 0.9765625 ng/ml. […] Plasma samples (30 μL) were treated with 90 μL acetonitrile for protein precipitation. Then all samples were vortexed for 2 min and centrifuged for 15 min at 13000 rpm and 4°C. The supernatants were analyzed by ultraperformance liquid chromatography-electrospray ionization-tandem triple quadrupole mass spectrometry (UPLC-ESI-QqQ-MS, Shimadzu 8040). The system was equipped with an XBridge BEH C18 column (2.5 μm, 2.1×100 mm; Waters, Milford, MA, USA). The column temperature was set at 35°C. The injection volume was 4 μl. […] The plasma concentration at each time point was calculated from the extracted peak area of the same mass peaks of each peptide using the corresponding standard curve.

Compound | helicity (circular dichroism) | IC50 (HCT116 p53^+/+ cells; 72 h) | IC50 (HCT116 p53^-/- cells; 72 h) | α-helicity (%) [1] | IC50 (HCT116 p53^+/+ cells; CCK-8, 72 h incubation, absorbance 450 nm, read-out: IC50 (μM) HCT116 p53^+/+) | IC50 (HCT116 p53^-/- cells; CCK-8, 72 h incubation, absorbance 450 nm, read-out: IC50 (μM) HCT116 p53^-/-) | Ki (^24-108MDMX) | Cmax (Pharmacokinetic study; mean) | AUC(0-inf) (Pharmacokinetic study) | MRT (Pharmacokinetic study) | half-life (Pharmacokinetic study; read-out: half-life (t1/2) (converted))
CC(=O)N[C@H](C(=O)N[C@@H](CO)C(=O)N[C@@H](Cc1ccccc1)C(=O)N[C@@]1(C)CCCC=CCCC[C@@](C)(C(=O)N[C@@H](CC(C)C)C(=O)N[C@@H](CC(C)C)C(=O)N[C@@H](CO)C(=O)NCCOCCOCCC(=O)N[C@@H](CC(C)C)C(=O)N[C@@H](C)C(=O)N2C[C@H](O)C[C@H]2C(=O)N[C@@H](Cc2ccc(O)cc2)C(=O)N[C@@H](CCC(C)C)C(=O)N2CCC[C@H]2C(N)=O)NC(=O)[C@H](Cc2c[nH]c3ccccc23)NC(=O)[C@H](Cc2ccc(O)cc2)NC(=O)[C@H](CCC(=O)O)NC1=O)[C@@H](C)O [SPMI-HIF1-2] (Ac-TSF[S5]EYW[S5]LLS[PEG2]LA[Hyp]Y[hLeu]P-NH2; staple 4-8) | 2% | 85.1 µM | > 100 µM | 2% |  |  |  |  |  |  | 
CC(=O)N[C@H](C(=O)N[C@@H](CO)C(=O)N[C@@H](Cc1ccccc1)C(=O)N[C@]1(C)CCCCCCC=CCCC[C@@](C)(C(N)=O)NC(=O)[C@H](CC(C)C)NC(=O)[C@H](CC(C)C)NC(=O)[C@H](C)NC(=O)[C@H](Cc2c[nH]c3ccccc23)NC(=O)[C@H](Cc2ccc(O)cc2)NC(=O)[C@H](CCC(=O)O)NC1=O)[C@@H](C)O [SPMI2] |  |  |  | 5% | 28.4 µM | > 100 µM | 620 nM and 290 nM | 30000 ng/mL | 78600 ng·h/mL | 10.9 h | 474 min
CC(=O)N[C@H](C(=O)N[C@@H](CO)C(=O)N[C@@H](Cc1ccccc1)C(=O)N[C@]1(C)CCCCCCC=CCCC[C@@](C)(C(=O)NCCOCCOCCOCCC(=O)N[C@@H](CC(C)C)C(=O)N[C@@H](C)C(=O)N2C[C@H](O)C[C@H]2C(=O)N[C@@H](Cc2ccc(O)cc2)C(=O)N[C@@H](CCC(C)C)C(=O)N2CCC[C@H]2C(N)=O)NC(=O)[C@H](CC(C)C)NC(=O)[C@H](CC(C)C)NC(=O)[C@H](C)NC(=O)[C@H](Cc2c[nH]c3ccccc23)NC(=O)[C@H](Cc2ccc(O)cc2)NC(=O)[C@H](CCC(=O)O)NC1=O)[C@@H](C)O [SPMI-HIF2-3] (Ac-TSF[R8]EYWALL[S5][PEG3]LA[Hyp]Y[hLeu]P-NH2; staple 4-11) | 24% | 15.2 µM | > 100 µM | 24% |  |  |  |  |  |  | 
CC(=O)N[C@H](C(=O)N[C@@H](CO)C(=O)N[C@@H](Cc1ccccc1)C(=O)N[C@@]1(C)CCCC=CCCC[C@@](C)(C(=O)N[C@@H](CC(C)C)C(=O)N[C@@H](CC(C)C)C(=O)N[C@@H](CO)C(=O)NCCOCCOCCOCCC(=O)N[C@@H](CC(C)C)C(=O)N[C@@H](C)C(=O)N2C[C@H](O)C[C@H]2C(=O)N[C@@H](Cc2ccc(O)cc2)C(=O)N[C@@H](CCC(C)C)C(=O)N2CCC[C@H]2C(N)=O)NC(=O)[C@H](Cc2c[nH]c3ccccc23)NC(=O)[C@H](Cc2ccc(O)cc2)NC(=O)[C@H](CCC(=O)O)NC1=O)[C@@H](C)O [SPMI-HIF1-3] (Ac-TSF[S5]EYW[S5]LLS[PEG3]LA[Hyp]Y[hLeu]P-NH2; staple 4-8) | 27% | 57.7 µM | > 100 µM | 27% |  |  |  |  |  |  | 
CC(=O)N[C@H](C(=O)N[C@@H](CO)C(=O)N[C@@H](Cc1ccccc1)C(=O)N[C@@]1(C)CCCC=CCCC[C@@](C)(C(=O)N[C@@H](CC(C)C)C(=O)N[C@@H](CC(C)C)C(=O)N[C@@H](CO)C(=O)NCCOCC(=O)N[C@@H](CC(C)C)C(=O)N[C@@H](C)C(=O)N2C[C@H](O)C[C@H]2C(=O)N[C@@H](Cc2ccc(O)cc2)C(=O)N[C@@H](CCC(C)C)C(=O)N2CCC[C@H]2C(N)=O)NC(=O)[C@H](Cc2c[nH]c3ccccc23)NC(=O)[C@H](Cc2ccc(O)cc2)NC(=O)[C@H](CCC(=O)O)NC1=O)[C@@H](C)O [SPMI-HIF1-1] (Ac-TSF[S5]EYW[S5]LLS[AEA]LA[Hyp]Y[hLeu]P-NH2; staple 4-8) | 3% | 82.1 µM | > 100 µM | 3% |  |  |  |  |  |  | 
CC(=O)N[C@H](C(=O)N[C@@H](CO)C(=O)N[C@@H](Cc1ccccc1)C(=O)N[C@]1(C)CCCCCCC=CCCC[C@@](C)(C(=O)NCCOCCOCCC(=O)N[C@@H](CC(C)C)C(=O)N[C@@H](C)C(=O)N2C[C@H](O)C[C@H]2C(=O)N[C@@H](Cc2ccc(O)cc2)C(=O)N[C@@H](CCC(C)C)C(=O)N2CCC[C@H]2C(N)=O)NC(=O)[C@H](CC(C)C)NC(=O)[C@H](CC(C)C)NC(=O)[C@H](C)NC(=O)[C@H](Cc2c[nH]c3ccccc23)NC(=O)[C@H](Cc2ccc(O)cc2)NC(=O)[C@H](CCC(=O)O)NC1=O)[C@@H](C)O [SPMI-HIF2-2] (Ac-TSF[R8]EYWALL[S5][PEG2]LA[Hyp]Y[hLeu]P-NH2; staple 4-11) | 37% | 10.8 µM | > 100 µM | 37% |  |  |  |  |  |  | 
CC(=O)N[C@H](C(=O)N[C@@H](CO)C(=O)N[C@@H](Cc1ccccc1)C(=O)N[C@@H](C)C(=O)N[C@@H](CCC(=O)O)C(=O)N[C@@H](Cc1ccc(O)cc1)C(=O)N[C@@H](Cc1c[nH]c2ccccc12)C(=O)N[C@@H](C)C(=O)N[C@@H](CC(C)C)C(=O)N[C@@H](CC(C)C)C(=O)N[C@@H](CO)C(=O)NCCOCCOCCC(=O)N[C@@H](CC(C)C)C(=O)N[C@@H](C)C(=O)N1C[C@H](O)C[C@H]1C(=O)N[C@@H](Cc1ccc(O)cc1)C(=O)N[C@@H](CCC(C)C)C(=O)N1CCC[C@H]1C(N)=O)[C@@H](C)O [PMI-HIF1-2] | 17% |  |  | 17% |  |  |  |  |  |  | 
CC(=O)N[C@H](C(=O)N[C@@H](CO)C(=O)N[C@@H](Cc1ccccc1)C(=O)N[C@@]1(C)CCCC=CCCC[C@@](C)(C(=O)N[C@@H](CC(C)C)C(=O)N[C@@H](CC(C)C)C(=O)N[C@@H](CO)C(N)=O)NC(=O)[C@H](Cc2c[nH]c3ccccc23)NC(=O)[C@H](Cc2ccc(O)cc2)NC(=O)[C@H](CCC(=O)O)NC1=O)[C@@H](C)O [SPMI1] (Ac-TSF[S5]EYW[S5]LLS-NH2; staple 4-8) | 4% | > 100 µM | > 100 µM | 4% |  |  |  |  |  |  | 
CC(=O)N[C@H](C(=O)N[C@@H](CO)C(=O)N[C@@H](Cc1ccccc1)C(=O)N[C@@H](C)C(=O)N[C@@H](CCC(=O)O)C(=O)N[C@@H](Cc1ccc(O)cc1)C(=O)N[C@@H](Cc1c[nH]c2ccccc12)C(=O)N[C@@H](C)C(=O)N[C@@H](CC(C)C)C(=O)N[C@@H](CC(C)C)C(=O)N[C@@H](CO)C(=O)NCCOCCOCCOCCC(=O)N[C@@H](CC(C)C)C(=O)N[C@@H](C)C(=O)N1C[C@H](O)C[C@H]1C(=O)N[C@@H](Cc1ccc(O)cc1)C(=O)N[C@@H](CCC(C)C)C(=O)N1CCC[C@H]1C(N)=O)[C@@H](C)O [PMI-HIF1-3] | 17% |  |  | 17% |  |  |  |  |  |  | 
